In patent US6677316B2, “Adenosine derivatives and methods of administration” (SmithKline Beecham Corporation, priority 1998, dated 2004):

Columns and labels:
[1] = target: T1, human adenosine A1 receptor (Homo sapiens, UniProt P30542); test: Reporter gene assay (CRE/SPAP) in CHO cells, agonist potency relative to NECA, adenosine A1 receptor; type: cell-based; set-up: key: equipotent concentration ratio, NECA = 1; settings: ECR = equipotent concentration ratio relative to NECA = 1, inhibition of forskolin-stimulated SPAP production
T1 construct: expressed in transfected cells; host or cells: Chinese hamster ovary (CHO) cells with CRE/SPAP/HYG reporter elements
T1 sequence (P30542 1-326): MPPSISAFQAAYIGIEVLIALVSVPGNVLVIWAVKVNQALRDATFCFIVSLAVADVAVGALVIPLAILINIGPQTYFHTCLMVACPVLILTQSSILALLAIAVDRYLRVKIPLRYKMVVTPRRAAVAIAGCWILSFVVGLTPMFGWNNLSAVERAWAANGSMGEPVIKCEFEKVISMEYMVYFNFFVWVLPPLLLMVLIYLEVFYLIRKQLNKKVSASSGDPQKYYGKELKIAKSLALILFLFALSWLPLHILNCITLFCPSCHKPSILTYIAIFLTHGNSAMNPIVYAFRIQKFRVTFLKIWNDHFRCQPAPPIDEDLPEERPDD
Experimental: (§1) Reporter Gene Experiments
(§2) Agonist activity was measured in Chinese hamster ovary (CHO) cells containing the CRE/SPAP/HYG (CRE=cyclic AMP response element; HYG=hygromycin resistance; SPAP=secreted placental alkaline phosphatase) reporter gene elements, which upon stimulation of cAMP levels produced SPAP. A cell line was used, which was stably transfected with either the human adenosine A1 receptor or the human adenosine A3 receptor in addition to the above elements. Cells were plated out in 96-well plates in culture medium and incubated at 37° C. for 1 hour. For measurement of potency, agonists were added to the appropriate wells at a concentration range of approximately 10^−10- 10^−5M. 15Min later, cAMP levels were stimulated by addition of a maximal concentration of forskolin. All cells were then incubated for a further 5 hours at 37° C., and cooled to room temperature, after which a substrate for the phosphatase (para-nitrophenol phosphate, pNPP), which is converted by SPAP to a coloured reagent) was then added and the 96-well -plates were read in a plate reader. From these readings, the concentration-dependence of the inhibition by the agonist for forskolin-stimulated SPAP production can be calculated. One of the agonists tested on each 96-well plate was the standard non-selective agonist, N-ethylcarboxamidoadenosine (NECA), and the potency of all test agonists is expressed relative to that of the NECA standard.
(§3) (ECR=equipotent concentration ratio relative to NECA=1)

[2] = target: T2, human adenosine A3 receptor (Homo sapiens, UniProt P0DMS8); test: Reporter gene assay (CRE/SPAP) in CHO cells, agonist potency relative to NECA, adenosine A3 receptor; type: cell-based; set-up: key: equipotent concentration ratio, NECA = 1; settings: ECR = equipotent concentration ratio relative to NECA = 1, inhibition of forskolin-stimulated SPAP production
T2 construct: expressed in transfected cells; host or cells: Chinese hamster ovary (CHO) cells with CRE/SPAP/HYG reporter elements
T2 sequence (P0DMS8 1-318): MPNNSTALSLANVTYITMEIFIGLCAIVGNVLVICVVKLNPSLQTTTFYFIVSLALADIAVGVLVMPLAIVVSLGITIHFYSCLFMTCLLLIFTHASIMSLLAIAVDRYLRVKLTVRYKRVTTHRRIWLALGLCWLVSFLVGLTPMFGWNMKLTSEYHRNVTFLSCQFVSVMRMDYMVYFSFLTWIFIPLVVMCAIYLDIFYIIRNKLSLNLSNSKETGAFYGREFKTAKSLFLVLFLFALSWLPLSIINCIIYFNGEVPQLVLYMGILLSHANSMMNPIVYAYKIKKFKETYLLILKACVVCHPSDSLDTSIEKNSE
Experimental: as §1, §2, §3

| SMILES | Adenosine A1 receptor ECR* [1] | Adenosine A3 receptor ECR* [2] |
| --- | --- | --- |
| CCOC(=O)N1CCC(Nc2ncnc3c2ncn3[C@@H]2O[C@H](c3nnc(C4CC4)o3)[C@@H](O)[C@H]2O)CC1 [Example 12, 4-{9-[5S-(5-Cyclopropyl-[1,3,4]oxadiazol-2-yl)-3R,4S-dihydroxy-tetrahydro-furan-2R-yl]-9H-purin-6-ylamino}-piperidine-1-carboxylic acid ethyl ester] | 2.28 | 254 |
| CCNS(=O)(=O)CCNc1ncnc2c1ncn2[C@@H]1O[C@H](c2cc(C(C)(C)C)no2)[C@@H](O)[C@H]1O [Example 177, 2-[(9-{(2R,3R,4S,5S)-5-[3-(tert-butyl)isoxazol-5-yl]-3,4-dihydroxy-tetrahydrofuran-2-yl}-9H-purin-6-yl)amino]-N-ethylethane-sulfonamide] | 2.01 | 122 |
| CNS(=O)(=O)CCNc1ncnc2c1ncn2[C@@H]1O[C@H](c2nc(C(C)C)no2)[C@@H](O)[C@H]1O [Example 54, 2-({9-[(2R,3R,4S,5S)-3,4-dihydroxy-5-(3-isopropyl-1,2,4-oxadiazol-5-yl)tetrahydrofuran-2-yl]-9H-purin-6-yl}amino)-N-methylethanesulfonamide] | 20.78 | 715.31 |
